In the test the test system is Ehrlich's ascites carcinoma cell. Description: Cell-killing effect upon Ehrlich's ascites carcinoma cell using WST. In kind it is cell-based. Particulars: 1×10^6 cells, read-out: IC50 (doxorubicin concentration by which 50% of cell-killing effect is obtained). The procedure: The preparations prepared in Examples 1 and 2 and Comparative Examples 1, 2 and 3 were adjusted to various concentrations, and the resulting liquids were added to Ehrlich's ascites carcinoma cell (1×10^6 cells) to examine their cell-killing effects using WST.
Based on the results of plotting a relationship between the doxorubicin concentration in each preparation and its cell-killing effect, the doxorubicin concentration by which 50% of cell-killing effect is obtained was calculated (Table 1). By this, it was shown that the liposome preparations of the present invention show significant pharmacological effect in comparison with Comparative Examples.

The structures appear in SMILES notation.

With `COc1cccc2c1C(=O)c1c(O)c3c(c(O)c1C2=O)C[C@@](O)(C(=O)CO)C[C@@H]3O[C@H]1C[C@H](N)[C@H](O)[C@H](C)O1` [Comparative Example 3, doxorubicin], the IC50 was 3.45 µM.

These data come from patent US20070286898A1, “Intracellular Drug Delivery Improving Liposome” (ASTELLAS PHARMA INC., priority 2004, published 2007).
